Assay results from US6242433A, “Geranylgeranyl-derivatives, process for the preparation thereof and related pharmaceutical compositions” (Laboratori Baldacci SpA, priority 1995, dated 2001).
Counter-ions that a name gives are not always drawn. Like-named read-outs stand apart in the source and are kept apart here.

Tests used:
[1] = tested on: p21rap1; assay: inhibition of p21rap1 geranylgeranylation in a malignant tumoral human cell line (electrophoresis, PVDF membrane, specific polyclonal antibody); assay type: cell-based; conditions: 75 μM; 24 hours
Method: The ability of the compounds according to the present invention of inhibiting the protein geranylgeranylation has been evaluated by means of an in vitro test on a malignant tumoral human cell line which has been treated with the following geranylgeranyl-derivatives:
The cells have been treated with increasing amounts of the geranylgeranyl derivatives BAL9504, BAL9505, BAL9603, BAL9605, BAL9608, BAL9609, BAL9610, BAL9611, BAL9613, BAL9503, BAL9614, (1-75 μM) and, after 24 hours, they have been collected and solubilized in a lysis solution containing non-ionic detergents. The soluble fraction has been collected by centrifugation and proteins separated by means of acrylamide gel electrophoresis and subsequently transferred onto a polyvinylidene fluoride (PVDF) membrane.
The presence of the geranylgeranylated protein p21rap1 has been then evidenced by means of a specific polyclonal antibody followed by chemiluminescent detection by means of a secondary antibody linked to alkaline phosphatase as previously described (M. A. Mansfield, FASEB J., S, A1428, 1994).

[2] = tested on: MIA PaCa-2 cell line; assay: citotoxicity on human pancreas cancer MIA PaCa-2 cell line; assay type: cell-based
Excerpt: The relevance of such an effect on cell proliferation has been then evaluated by studying the citotoxicity of the above-mentioned compounds on the of human pancreas cancer MIA PaCa-2 cell line following the method described by R. Danesi et. al., Mol. Pharmacol., 47, 1106, 1995.
(§1) The citotoxicity of the geranylgeranyl-derivatives BAL9504 and BAL9503 has also been evaluated on the normal diploid fibroblast cells MRC-5 from human lung following the method described by R. Danesi et. al., Mol. Pharmacol., 47, 1106, 1995. Table 2 reports the concentration of the compounds under study that produces 50% growth inhibition (IC50) in MRC-5 and MIA PaCa-2 cell lines together with the sensibility index, that is the ratio between the IC50 in MRC-5 and MIA PaCa-2 cells.

[3] = tested on: normal diploid fibroblast cells MRC-5; assay: citotoxicity on normal diploid fibroblast cells MRC-5 from human lung; assay type: cell-based; conditions: Table 2; for IC50: Homo sapiens, MRC5, MRC-5, read-out: IC50 (50% growth inhibition); for Sensibility Index (ratio between the IC50 in MRC-5 and MIA PaCa-2 cells): IC50 MRC-5 / IC50 MIA PaCa-2
Excerpt: as §1

[4] = tested on: MIA PaCa-2 cell line; assay: apoptosis in MIA PaCa-2 cells (ELISA of fragmented DNA); assay type: cell-based, human; conditions: 1-75 μM; vs non-treated cells
Excerpt: Apoptosis consists in enzymatic digestion of nuclear DNA by endogenous nucleases within the cell and it occurs when cell replication is impaired by agents that block cell cycle progression towards mitosis.

[5] = Table 1, read-out: IC50 (the concentration that produces 50% reduction in cell growth)
[6] = Table 2, read-out: IC50 (50% growth inhibition)

| SMILES | amount of the non-isoprenylated protein relative to the isoprenylated one (p21rap1) [1] | IC50 [2, 5] | IC50 [2, 6] | IC50 [3] | Sensibility Index (ratio between the IC50 in MRC-5 and MIA PaCa-2 cells) [3] | induction of death for apoptosis [4] |
| --- | --- | --- | --- | --- | --- | --- |
| CC(C)=CCC/C(C)=C/CC/C(C)=C/CC/C(C)=C/COC(=O)NS(N)(=O)=O [BAL9503, (E,E,E)-O-(3,7,11,15-tetramethyl-2,6,10,14-hexadecatetraenyl)-N-(aminosulfonyl)urethane] | equal to that of the isoprenylated one | 10.5 µM | 10.5 µM | 256 µM | 24.4 | induce death for apoptosis |
| CC(C)=CCC/C(C)=C/CC/C(C)=C/CC/C(C)=C/CONC(=O)CP(=O)(O)O [BAL9504, dipotassium salt of (E,E,E)-{2-oxo-2-[[(3,7,11,15-tetramethyl-2,6,10,14-hexadecatetraenyl)oxy]amino]ethyl}phosphonic acid] | equal to that of the isoprenylated one | 2.1 µM | 2.1 µM | 54.6 µM | 26 | induce death for apoptosis |
| CCOP(=O)(O)CC(=O)NOC/C=C(\C)CC/C=C(\C)CC/C=C(\C)CCC=C(C)C [BAL9505, monosodium salt of the monoethyl-ester of (E,E,E)-{2-oxo-2[[(3,7,11,15-tetramethyl-2,6,10,14-hexadecatetraenyl)oxy]amino]ethyl}phosphonic acid] | equal to that of the isoprenylated one | > 30 µM |  |  |  |  |
| CC(C)=CCC/C(C)=C/CC/C(C)=C/CC/C(C)=C/CONC(=O)CCP(=O)(O)O [BAL9603, dipotassium salt of (E,E,E)-{3-oxo-3-[[(3,7,11,15-tetramethyl-2,6,10,14-hexadecatetraenyl)oxy]amino]propyl}phosphonic acid] |  | > 30 µM |  |  |  |  |
| CC(C)=CCC/C(C)=C/CC/C(C)=C/CC/C(C)=C/CNC(=O)CP(=O)(O)O [BAL9605, dipotassium salt of (E,E,E)-[2-oxo-2-[(3,7,11,15-tetramethyl-2,6,10,14-hexadecatetraenyl)amino]ethyl]phosphonic acid] |  | 7.7 µM |  |  |  | induce death for apoptosis |
| CC(C)=CCC/C(C)=C/CC/C(C)=C/CC/C(C)=C/CNC(=O)CCP(=O)(O)O [BAL9608, dipotassium salt of (E,E,E)-[3-oxo-3-[(3,7,11,15-tetramethyl-2,6,10,14-hexadecatetraenyl)amino]propyl]phosphonic acid] |  | 16.7 µM |  |  |  |  |
| CC(C)=CCC/C(C)=C/CC/C(C)=C/CC/C(C)=C/CCP(=O)(O)CP(=O)(O)O [BAL9609, tripotassium salt of (E,E,E)-[[(4,8,12,16-tetramethyl-3,7,11,15-heptadecatetraenyl)hydroxyphosphoryl]methyl]phosphonic acid] |  | 3.5 µM |  |  |  | induce death for apoptosis |
| CC(C)=CCC/C(C)=C/CC/C(C)=C/CC/C(C)=C/CCP(=O)(O)C(C)(C)P(=O)(O)O [BAL9610, tripotassium salt of (E,E,E)-1-methyl-1[(4,8,12,16-tetramethyl-3,7,11,15-heptadecatetraenyl)hydroxyphosphoryl]ethylphosphonic acid] |  | > 30 µM |  |  |  |  |
| CCC(CC)(P(=O)(O)O)P(=O)(O)CC/C=C(\C)CC/C=C(\C)CC/C=C(\C)CCC=C(C)C [BAL9611, tripotassium salt of (E,E,E)-1-ethyl-1-[(4,8,12,16-tetramethyl-3,7,11,15-heptadecatetraenyl)hydroxyphosphoryl]propylphosphonic acid] |  | 1.5 µM |  |  |  | induce death for apoptosis |
| CC(C)=CCC/C(C)=C/CC/C(C)=C/CC/C(C)=C/CCP(=O)(O)O [BAL9613, dipotassium salt of (E,E,E)-(4,8,12,16-tetramethyl-3,7,11,15-heptadecatetraenyl)phosphonic acid] |  | > 30 µM |  |  |  |  |
| CC(C)=CCC/C(C)=C/CC/C(C)=C/CC/C(C)=C/CONS(N)(=O)=O [BAL9614, (E,E,E)-1-[(aminosulfonyl)aminoxy]-3,7,11,15-tetramethyl-2,6,10,14-hexadecatetraene] |  | 11.9 µM |  |  |  |  |
